One data set deals with CYP4503A4. Kind of data set: CYP4503A4 metabolic induction (mRNA expression) in human cryopreserved platable hepatocytes. The note with it: 10 μM test compound, two days treatment, mRNA by QuantiGene Plex 2.0. It is filed as in vitro ADME. The procedure:
In Vitro Evaluation of Test Compounds for CYP4503A4 Metabolic Induction Using Human Liver Hepatocytes.
CYP induction assessment was performed using human cryopreserved platable hepatocytes. Test compound was assessed at three or six different concentrations in duplicate.
A sandwich culture of platable cryopreserved hepatocytes was used with one day recovery period after plating. Assessment of cell morphology and confluency was performed using a phase-contrast microscope for representative wells.
The plated hepatocyte cell monolayers were treated with test compound, negative and positive controls for two days changing medium every 24 hours. On the fourth day, assessment of cell morphology and confluency was repeated to ensure cell monolayer integrity. Assessment of cell morphology and confluency was performed using a phase-contrast microscope for representative wells.
Cell monolayers were assessed for test compound cytotoxicity by an adenosine triphosphate (ATP) content assay in a separate plate.
Expression levels of mRNA for CYP1A2, CYP2B6, and CYP3A4 were evaluated by the QuantiGene® Plex 2.0 methodology.

The target in another data set is mP2X7 (Mus musculus (Mouse), UniProt Q9Z1M0). Nature of the data set: mP2X7 channel calcium-influx assay (Fluo-8 NW, FLIPR TETRA, Bz-ATP stimulation). It is filed as cell-based. The procedure, abridged: (§1)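 HEK-293 cells stably expressing human or mouse P2X7, preloaded with Fluo-8 NW dye for 1 h at RT. Compounds added, Bz-ATP-evoked Ca2+ influx followed as fluorescence kinetics over 5 min on FLIPR TETRA; A438079 served as reference antagonist.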

In another data set the target is P2X7 receptor (Homo sapiens (Human), UniProt Q99572). Nature of the data set: Human P2X7 channel calcium-influx assay (Fluo-8 NW, FLIPR TETRA, Bz-ATP stimulation). As to conditions: HEK-293 cells stably transfected with P2X7 receptor, Low Divalent Cation Assay Buffer, read-out: hP2X7 IC50. It is filed as cell-based. The procedure, abridged: as §1

Molecules are shown by their SMILES.

Chain of mP2X7 (Q9Z1M0 whole entry): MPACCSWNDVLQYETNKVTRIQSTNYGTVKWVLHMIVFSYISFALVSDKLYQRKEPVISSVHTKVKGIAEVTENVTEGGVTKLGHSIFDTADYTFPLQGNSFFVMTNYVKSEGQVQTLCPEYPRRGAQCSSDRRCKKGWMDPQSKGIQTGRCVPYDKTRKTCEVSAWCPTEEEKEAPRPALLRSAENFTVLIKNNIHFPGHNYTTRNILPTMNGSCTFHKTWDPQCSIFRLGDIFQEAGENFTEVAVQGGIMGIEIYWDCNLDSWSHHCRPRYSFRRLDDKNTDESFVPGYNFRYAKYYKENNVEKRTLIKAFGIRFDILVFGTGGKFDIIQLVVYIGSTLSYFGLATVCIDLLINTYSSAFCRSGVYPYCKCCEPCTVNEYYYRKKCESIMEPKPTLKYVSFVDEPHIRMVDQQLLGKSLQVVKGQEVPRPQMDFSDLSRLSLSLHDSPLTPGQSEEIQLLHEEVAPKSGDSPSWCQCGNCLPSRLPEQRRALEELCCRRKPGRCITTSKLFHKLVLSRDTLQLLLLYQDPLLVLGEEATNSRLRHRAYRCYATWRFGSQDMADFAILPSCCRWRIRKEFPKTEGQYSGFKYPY
Chain of P2X7 receptor (Q99572 whole entry): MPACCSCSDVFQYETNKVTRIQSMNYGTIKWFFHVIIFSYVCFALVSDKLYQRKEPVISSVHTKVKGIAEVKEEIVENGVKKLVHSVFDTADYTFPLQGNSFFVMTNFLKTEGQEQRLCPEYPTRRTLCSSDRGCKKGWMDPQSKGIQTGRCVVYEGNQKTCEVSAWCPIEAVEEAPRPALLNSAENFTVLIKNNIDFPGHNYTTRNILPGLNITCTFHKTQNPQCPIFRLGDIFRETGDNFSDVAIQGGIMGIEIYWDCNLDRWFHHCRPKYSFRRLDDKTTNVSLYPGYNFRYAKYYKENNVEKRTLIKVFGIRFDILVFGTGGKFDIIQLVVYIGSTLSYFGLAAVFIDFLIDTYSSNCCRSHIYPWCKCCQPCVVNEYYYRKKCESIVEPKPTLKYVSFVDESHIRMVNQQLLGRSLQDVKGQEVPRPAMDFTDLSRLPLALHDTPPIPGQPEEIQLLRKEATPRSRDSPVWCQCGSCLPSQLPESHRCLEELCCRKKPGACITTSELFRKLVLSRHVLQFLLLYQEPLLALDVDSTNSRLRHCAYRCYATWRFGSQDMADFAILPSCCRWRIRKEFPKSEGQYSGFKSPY

Broadly, the IC50 is the point on the concentration scale where inhibition reaches its midpoint. On to `O=C(NCC(c1scnc1C(F)F)N1CCC(Oc2ccncc2)CC1)c1c(F)cccc1Cl` (stereo not shown) [Example 3, 2-chloro-N-{2-[4-(difluoromethyl)-1,3-thiazol-5-yl]-2-[4-(pyridin-4-yloxy)piperidin-1-yl]ethyl}-6-fluorobenzamide], for which the “CYP4503A4 mRNA fold increase at 10 μM” value with CYP4503A4 is 4.4 fold. The IC50 at mP2X7 came out at 80.8 nM; on P2X7 receptor, 37.7 nM.

Regarding `O=C(NCC(c1scnc1C(F)F)N1CCC(Oc2ncccc2F)CC1)c1c(F)cccc1Cl` (stereo not shown) [Example 7, 2-chloro-N-{2-[4-(difluoromethyl)-1,3-thiazol-5-yl]-2-{4-[(3-fluoropyridin-2-yl)oxy]piperidin-1-yl}ethyl}-6-fluorobenzamide], the “CYP4503A4 mRNA fold increase at 10 μM” value with CYP4503A4 was 5.6 fold. Further, the IC50 came out at 28.9 nM at mP2X7 and 32.6 nM on P2X7 receptor.

As to `O=C(NCC(c1scnc1C(F)F)N1CCC(COc2nc3ccccc3s2)CC1)c1c(F)cccc1Cl` (stereo not shown) [Example 93, N-(2-{4-[(1,3-Benzothiazol-2-yloxy)methyl]piperidin-1-yl}-2-[4-(difluoromethyl)-1,3-thiazol-5-yl]ethyl)-2-chloro-6-fluorobenzamide], the “CYP4503A4 mRNA fold increase at 10 μM” value in the data set with CYP4503A4 is 6.5 fold. For the same molecule, the IC50 on mP2X7 stood at 22.7 nM; on P2X7 receptor, 43.6 nM.

Regarding `COc1cc(OC2CCN(C(CNC(=O)c3c(F)cccc3Cl)c3scnc3C(F)F)CC2)ncn1` (stereo not shown) [Example 65, 2-Chloro-N-{2-[4-(difluoromethyl)-1,3-thiazol-5-yl]-2-{4-[(6-methoxypyrimidin-4-yl)oxy]piperidin-1-yl}ethyl}-6-fluorobenzamide], the “CYP4503A4 mRNA fold increase at 10 μM” value with CYP4503A4 is on record as 4.9 fold. Also, the values for the IC50 at mP2X7 and on P2X7 receptor were 96.2 nM and 56.2 nM, respectively.

Turning to `O=C(NCC(c1scnc1C(F)F)N1CCC(Oc2cncc3nncn23)CC1)c1c(F)cccc1Cl` (stereo not shown) [Example 45], the “CYP4503A4 mRNA fold increase at 10 μM” value in the data set on CYP4503A4 turned out to be 1.9 fold. Also, the IC50 came to 550 nM on mP2X7 and 254 nM on P2X7 receptor.

Take `O=C(NCC(c1scnc1C(F)F)N1CCC(Oc2nc(C3CC3)ns2)CC1)c1c(F)cccc1Cl` (stereo not shown) [Example 13, 2-Chloro-N-(2-{4-[(3-cyclopropyl-1,2,4-thiadiazol-5-yl)oxy]piperidin-1-yl}-2-[4-(difluoromethyl)-1,3-thiazol-5-yl]ethyl)-6-fluorobenzamide]: the “CYP4503A4 mRNA fold increase at 10 μM” value in the data set on CYP4503A4 is 9.7 fold. Further, the figures for the IC50 on mP2X7 and on P2X7 receptor were 33.4 nM and 19.2 nM, respectively.

On to `O=C(NCC(c1scnc1C(F)F)N1CCC(COc2nc(C3CC3)ns2)CC1)c1c(F)cccc1Cl` (stereo not shown) [Example 87, 2-Chloro-N-[2-(4-{[(3-cyclopropyl-1,2,4-thiadiazol-5-yl)oxy]methyl}piperidin-1-yl)-2-[4-(difluoromethyl)-1,3-thiazol-5-yl]ethyl]-6-fluorobenzamide], for which, in the data set on CYP4503A4, the “CYP4503A4 mRNA fold increase at 10 μM” value is 6.4 fold. Further, the half-maximal inhibitory concentration (IC50) at mP2X7 is 30.4 nM; on P2X7 receptor, 36.9 nM.

`O=C(NCC(c1scnc1C(F)F)N1CCC(Oc2cccnc2)CC1)c1c(F)cccc1Cl` (stereo not shown) [Example 2, 2-chloro-N-{2-[4-(difluoromethyl)-1,3-thiazol-5-yl]-2-[4-(pyridin-3-yloxy)piperidin-1-yl]ethyl}-6-fluorobenzamide]: the “CYP4503A4 mRNA fold increase at 10 μM” value with CYP4503A4 is 4.8 fold. The IC50 was 36.9 nM at mP2X7 and 35.9 nM at P2X7 receptor.

For `O=C(NCC(c1scnc1C(F)F)N1CCC(Oc2nccc(Cl)n2)CC1)c1c(F)cccc1Cl` (stereo not shown) [Example 75, 2-chloro-N-(2-{4-[(4-chloropyrimidin-2-yl)oxy]piperidin-1-yl}-2-[4-(difluoromethyl)-1,3-thiazol-5-yl]ethyl)-6-fluorobenzamide], the “CYP4503A4 mRNA fold increase at 10 μM” value in the data set with CYP4503A4 came out at 2.2 fold. Also, the results for the IC50 at mP2X7 and at P2X7 receptor were 82.1 nM and 53.8 nM, respectively.

`O=C(NCC(c1scnc1C(F)F)N1CCC(Oc2ccnc(F)c2)CC1)c1c(F)cccc1Cl` (stereo not shown) [Example 80, 2-Chloro-N-{2-[4-(difluoromethyl)-1,3-thiazol-5-yl]-2-{4-[(2-fluoropyridin-4-yl)oxy]piperidin-1-yl}ethyl}-6-fluorobenzamide]: in the data set on CYP4503A4, the “CYP4503A4 mRNA fold increase at 10 μM” value amounted to 6.0 fold. The IC50 at mP2X7 turned out to be 36.9 nM; on P2X7 receptor, 20.3 nM.

Consider `Cc1cc(OC2CCN(C(CNC(=O)c3c(F)cccc3Cl)c3scnc3C(F)F)CC2)ccn1` (stereo not shown) [Example 73, 2-Chloro-N-{2-[4-(difluoromethyl)-1,3-thiazol-5-yl]-2-{4-[(2-methylpyridin-4-yl)oxy]piperidin-1-yl}ethyl}-6-fluorobenzamide], for which the “CYP4503A4 mRNA fold increase at 10 μM” value with CYP4503A4 is given as 2.4 fold. Also, the IC50 was 70.9 nM at mP2X7 and 64.9 nM on P2X7 receptor.

Turning to `O=C(NCC(c1scnc1C(F)F)N1CCC(Oc2nccn3cnnc23)CC1)c1c(F)cccc1Cl` (stereo not shown) [Example 46, 2-Chloro-N-{2-[4-(difluoromethyl)-1,3-thiazol-5-yl]-2-(4-{[1,2,4]triazolo[4,3-a]pyrazin-8-yloxy}piperidin-1-yl)ethyl}-6-fluorobenzamide], the “CYP4503A4 mRNA fold increase at 10 μM” value in the data set with CYP4503A4 was 4.5 fold. Besides, the IC50 on mP2X7 stood at 658 nM; on P2X7 receptor it was 264 nM.

Consider `O=C(NCC(c1scnc1C(F)F)N1CCC(COc2cc(F)ncn2)CC1)c1c(F)cccc1Cl` (stereo not shown) [Example 103, 2-Chloro-N-{2-[4-(difluoromethyl)-1,3-thiazol-5-yl]-2-(4-{[(6-fluoropyrimidin-4-yl)oxy]methyl}piperidin-1-yl)ethyl}-6-fluorobenzamide], for which, in the data set on CYP4503A4, the “CYP4503A4 mRNA fold increase at 10 μM” value amounted to 5.0 fold. Also, the IC50 is 34 nM at mP2X7 and 21.1 nM at P2X7 receptor.

For `O=C(NCC(c1scnc1C(F)F)N1CCC(Oc2cncc(Cl)n2)CC1)c1c(F)cccc1Cl` (stereo not shown) [Example 76, 2-Chloro-N-(2-{4-[(6-chloropyrazin-2-yl)oxy]piperidin-1-yl}-2-[4-(difluoromethyl)-1,3-thiazol-5-yl]ethyl)-6-fluorobenzamide], in the data set with CYP4503A4, the “CYP4503A4 mRNA fold increase at 10 μM” value is on record as 5.1 fold. In addition, the IC50 at mP2X7 was 28.9 nM; on P2X7 receptor it was 43.7 nM.

Turning to `O=C(NCC(c1scnc1C(F)F)N1CCC(COc2ccnc(F)c2)CC1)c1c(F)cccc1Cl` (stereo not shown) [Example 125, 2-Chloro-N-{2-[4-(difluoromethyl)-1,3-thiazol-5-yl]-2-(4-{[(2-fluoropyridin-4-yl)oxy]methyl}piperidin-1-yl)ethyl}-6-fluorobenzamide], in the data set on CYP4503A4, the “CYP4503A4 mRNA fold increase at 10 μM” value came to 5.5 fold. Besides, the IC50 on mP2X7 came to 23 nM; on P2X7 receptor, 16.1 nM.

With `O=C(NCC(c1scnc1C(F)F)N1CCC(COc2cccc(F)n2)CC1)c1c(F)cccc1Cl` (stereo not shown) [Example 124, 2-Chloro-N-{2-[4-(difluoromethyl)-1,3-thiazol-5-yl]-2-(4-{[(6-fluoropyridin-2-yl)oxy]methyl}piperidin-1-yl)ethyl}-6-fluorobenzamide], the “CYP4503A4 mRNA fold increase at 10 μM” value in the data set with CYP4503A4 is reported as 6.9 fold. Also, the IC50 at mP2X7 is 18.5 nM; on P2X7 receptor, 18.1 nM.

Consider `O=C(NCC(c1scnc1C(F)F)N1CCC(Oc2ccc(F)nn2)CC1)c1c(F)cccc1Cl` (stereo not shown) [Example 32, 2-Chloro-N-{2-[4-(difluoromethyl)-1,3-thiazol-5-yl]-2-{4-[(6-fluoropyridazin-3-yl)oxy]piperidin-1-yl}ethyl}-6-fluorobenzamide], for which, in the data set on CYP4503A4, the “CYP4503A4 mRNA fold increase at 10 μM” value was 6.0 fold. Besides, the IC50 was found to be 82 nM on mP2X7 and 21.3 nM on P2X7 receptor.

Take `O=C(NCC(c1scnc1C(F)F)N1CCC(Oc2ccnc3cccnc23)CC1)c1c(F)cccc1Cl` (stereo not shown) [Example 48, 2-Chloro-N-{2-[4-(difluoromethyl)-1,3-thiazol-5-yl]-2-[4-(1,5-naphthyridin-4-yloxy)piperidin-1-yl]ethyl}-6-fluorobenzamide]: the “CYP4503A4 mRNA fold increase at 10 μM” value in the data set on CYP4503A4 is on record as 7.6 fold. Further, the IC50 at mP2X7 came out at 36 nM; at P2X7 receptor, 74.9 nM.

For the molecule `O=C(NCC(c1scnc1C(F)F)N1CCC(Oc2ccncn2)CC1)c1c(F)cccc1Cl` (stereo not shown) [Example 78, 2-Chloro-N-{2-[4-(difluoromethyl)-1,3-thiazol-5-yl]-2-[4-(pyrimidin-4-yloxy)piperidin-1-yl]ethyl}-6-fluorobenzamide], the “CYP4503A4 mRNA fold increase at 10 μM” value in the data set with CYP4503A4 is recorded as 3.6 fold. The IC50 on mP2X7 stood at 180 nM; on P2X7 receptor, 73.1 nM.

`O=C(NCC(c1scnc1C(F)F)N1CCC(COc2nccnc2F)CC1)c1c(F)cccc1Cl` (stereo not shown) [Example 106, 2-Chloro-N-{2-[4-(difluoromethyl)-1,3-thiazol-5-yl]-2-(4-{[(3-fluoropyrazin-2-yl)oxy]methyl}piperidin-1-yl)ethyl}-6-fluorobenzamide]: the “CYP4503A4 mRNA fold increase at 10 μM” value in the data set on CYP4503A4 came to 4.9 fold. Besides, the results for the IC50 at mP2X7 and on P2X7 receptor were 30.5 nM and 39.6 nM, respectively.

With `N#Cc1cccnc1OC1CCN(C(CNC(=O)c2c(F)cccc2Cl)c2scnc2C(F)F)CC1` (stereo not shown) [Example 36, 2-Chloro-N-(2-{4-[(3-cyanopyridin-2-yl)oxy]piperidin-1-yl}-2-[4-(difluoromethyl)-1,3-thiazol-5-yl]ethyl)-6-fluorobenzamide], the IC50 on mP2X7 is 126 nM; on P2X7 receptor it was 53.8 nM.

`COc1ccnc(OC2CCN(C(CNC(=O)c3c(F)cccc3Cl)c3scnc3C(F)F)CC2)n1` (stereo not shown) [Example 64, 2-Chloro-N-{2-[4-(difluoromethyl)-1,3-thiazol-5-yl]-2-{4-[(4-methoxypyrimidin-2-yl)oxy]piperidin-1-yl}ethyl}-6-fluorobenzamide]: the results for the IC50 at mP2X7 and at P2X7 receptor were 209 nM and 65.8 nM, respectively.

Source of the values: patent US20240034737A1, “Heterocyclic Derivatives as P2X7 Receptor Antagonists” (BREYE THERAPEUTICS APS, priority 2020, published 2024).
